Source: patent publication US20250057191A1, “METHODS OF IMPROVING THE NUTRITIONAL STATUS OF IMMUNE STRESSED ANIMALS” (ELANCO US INC., priority 2021, published 2025)
Marks after values point to notes of the source that are not given here.

Columns and labels:
serum vitamin A = assay: Example 4: serum vitamin A in nursery pigs fed full or partial compositions of Combo, weaning to end of nursery; assay type: in vivo
Method: Serum samples were collected from two randomly selected pigs per pen with a total of 4 pigs per treatment at weaning (prior to access of the experimental diets) and at the end of the nursery phase when pigs reached approximately 45 lb of BW. Serum samples were analyzed for vitamin A concentration.

nursery pigs = assay: Example 4: growth performance and livability of nursery pigs from 8 to 45 lb of BW, full vs. partial components, 65 d
Description: To evaluate the effects of dietary supplementation of the full vs. partial components of a beta-glucan/yeast cell wall/direct fed microbials/L-carnitine combination (Combo), a study was designed to feed the dietary treatments as shown Table 14 to nursery pigs from approximately 8 to 45 lb of BW post-weaning. Specifically, a total of 216 mixed-gender pigs were randomly placed in pens with 27 pigs per pen at weaning. Pens were blocked by weaning weight and pens within block were randomly assigned to one of 4 dietary treatments resulting in two pens per treatment. This study was conducted for 65 days in a 4-phase feeding program immediately after weaning.
Concentration of DFM was no less than 7.5×10^8 cfu/g of the product. Dietary concentrations of beta-glucan, yeast cell wall, DFM and carnitine were the same for each of the treatments if included in the diets.

[1] = end of nursery (approx. 45 lb BW)
[2] = 8 to 45 lb BW, Combo and Yeast/DFM 1.0 lb/ton, L-Carnitine 50 ppm
[3] = Early nursery, Phase 1 to 2, 22 d post-weaning
[4] = Entire nursery, Phase 1 to 4, 65 d post-weaning
[5] = Late nursery, Phase 3 to 4, 43 d post-weaning

## C[N+](C)(C)C[C@H](O)CC(=O)[O-] [carnitine, L-Carnitine]
Serum vitamin A; Combo and Yeast/DFM 1.0 lb/ton, L-Carnitine 50 ppm, FIG. 6
  percentage increase of serum vitamin A concentration from weaning to the end of nursery: 114%
Serum vitamin A; [1]
  serum vitamin A concentration, Max.: 0.198 ppm
  serum vitamin A concentration, Mean: 0.168 ppm
  serum vitamin A concentration, Min.: 0.143 ppm
Serum vitamin A; ~45 lb BW, Combo and Yeast/DFM 1.0 lb/ton, L-Carnitine 50 ppm, 4 pigs per treatment
  serum vitamin A concentration at the end of nursery: 0.503 ppm
Nursery pigs; [2]
  greater nursery closeout ADG compared to Control: 29%
  greater nursery closeout G/F compared to Control: 29%
Nursery pigs; Early nursery, 22 d post-weaning
  BW end of Phase 2: 13.3 ^b lb
Nursery pigs; Early nursery, Phase 1 to 2, 22 d
  ADFI: 0.68 lb/day
Nursery pigs; [3]
  ADG: 0.16 lb/day
  G:F: 0.241 ^b
  Mortality: 31.48%
Nursery pigs; Entire nursery, Phase 1 to 4, 65 d
  ADFI: 1.01 ^a lb/day
Nursery pigs; [4]
  ADG: 0.31 ª lb/day
  ADG, change compared to Control: (+29%)
  G/F: 0.282 ^b
  G/F, change compared to Control: (+29%)
  Mortality: 46.30%
Nursery pigs; Late nursery, Phase 3 to 4
  Closeout BW end of Phase 4: 43.2 lb
Nursery pigs; Late nursery, Phase 3 to 4, 43 d
  ADFI: 1.32 ª lb/day
Nursery pigs; [5]
  ADG: 0.78 ^c lb/day
  F/G: 1.69
  Mortality: 14.81%
